These results are taken from ChEMBL document CHEMBL1201862, “PubChem BioAssay data set” (2004).

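Interpolation was linear, between the two tested concentrations surrounding the appropriate level; five concentrations were tested over 48 hours in 96-well plates. Abbreviation: GI50, concentration required for 50% inhibition of growth.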 Activity calls are given as the source filed them. Cut-off read from the data, not from the text of the source: active = GI50 up to about 1.1 µM and inactive = higher.

Some test systems named below: UO-31; SK-MEL-28; SF-539; M14; XF498; UACC-257; MOLT-4; HCC 2998; NCI-H460; SR; HCT-15; SNB-19; CAKI-1; SNB-75; DLD-1; SK-MEL-2; SF-295; DMS-273.
What all share (assay): growth of human tumour cells (NCI), 48 h

`CC1(C)OC(C(N)=O)=C(C(N)=O)O1`: the GI50 with UO-31, in the test with SK-MEL-28, in the test with SF-539, with M14, with XF498 and in the test on UACC-257 was > 100 µM (inactive) in each case. For the same compound, the GI50 with MOLT-4 was > 100 µM (inactive); in the test with HCC 2998, > 100 µM (inactive); in the test with NCI-H460, > 100 µM (inactive); with SR it was 6.53 µM (inactive); with HCT-15 it was greater than 100 µM; in the test on SNB-19, > 100 µM (inactive). The GI50 in the test with CAKI-1, in the test with SNB-75, in the test on DLD-1, in the test with SK-MEL-2, with SF-295 and in the test on DMS-273 was > 100 µM (inactive) each time.

`COc1ccc(C(=O)C(C(=O)C(=O)NCCCNC(=O)C(=O)C(C(=O)c2ccc(OC)cc2)c2ccc(OC)cc2)c2ccc(OC)cc2)cc1` (stereo unspecified): the GI50 in the test with UO-31, in the test with SK-MEL-28, in the test on SF-539, in the test on M14, in the test on XF498 and with UACC-257 was > 100 µM (inactive) in each case. Further, the GI50 with MOLT-4 is > 100 µM (inactive); with HCC 2998, > 100 µM (inactive); in the test on NCI-H460 it was > 100 µM (inactive); with SR, > 100 µM (inactive); in the test on HCT-15, greater than 100 µM; with SNB-19 it was > 100 µM (inactive). For the same compound, the GI50 in the test with SNB-75, with DLD-1, in the test on SK-MEL-2, in the test on SF-295 and in the test with DMS-273 was > 100 µM (inactive) throughout.

Take `Cc1ccc(/C=C/C(=O)c2ccc([N+](=O)[O-])cc2)cc1`: the GI50 in the test with UO-31 was 59.4 µM (inactive); with SK-MEL-28, > 100 µM (inactive); with SF-539 it was > 100 µM (inactive); with M14, > 100 µM (inactive); in the test on XF498, > 100 µM (inactive); in the test with UACC-257, > 100 µM (inactive). Besides, the GI50 was > 100 µM (inactive) in the test on MOLT-4; > 100 µM (inactive) in the test on HCC 2998; > 100 µM (inactive) with NCI-H460; 79.1 µM (inactive) in the test on SR; greater than 100 µM with HCT-15; > 100 µM (inactive) in the test with SNB-19. Also, the GI50 is > 100 µM (inactive) with CAKI-1; > 100 µM (inactive) with SNB-75; 99.8 µM (inactive) in the test on DLD-1; > 100 µM (inactive) in the test with SK-MEL-2; > 100 µM (inactive) in the test on SF-295; > 100 µM (inactive) in the test on DMS-273.

On to `[O-]c1on[n+]2c1c(Nc1ccc(Cl)cc1)nc1ccccc12`, for which the GI50 in the test with UO-31, in the test on SK-MEL-28, in the test with SF-539, in the test with M14, in the test on XF498 and in the test with UACC-257 was > 100 µM (inactive) throughout. Moreover, the GI50 with MOLT-4 is > 100 µM (inactive); with HCC 2998, > 100 µM (inactive); in the test with NCI-H460, > 100 µM (inactive); in the test on SR it was > 100 µM (inactive); in the test on SNB-19, > 100 µM (inactive); in the test on SNB-75, 85.1 µM (inactive). Also, the GI50 in the test on DLD-1, in the test with SF-295 and in the test on DMS-273 was > 100 µM (inactive) in each case.

`C=CCNC(=O)C(C)C1CCC2(C)C=CC(=O)C(C)=C2C1O` (stereo unspecified): the GI50 in the test with UO-31, in the test with SK-MEL-28, in the test with SF-539, with XF498, in the test on UACC-257 and with MOLT-4 was > 100 µM (inactive) throughout. Further, the GI50 with HCC 2998 was > 100 µM (inactive); in the test with NCI-H460 it was > 100 µM (inactive); in the test with HCT-15, greater than 100 µM; in the test on SNB-19, > 100 µM (inactive); with CAKI-1, > 100 µM (inactive); in the test on SNB-75, > 100 µM (inactive). For the same compound, the GI50 in the test on DLD-1, with SK-MEL-2, with SF-295 and in the test on DMS-273 was > 100 µM (inactive) in each case.

Consider `COc1nc(N)c(NC(C)=O)c(=O)n1C`, for which the GI50 with UO-31, in the test on SK-MEL-28, in the test on SF-539, in the test with M14, in the test on XF498 and with UACC-257 was > 100 µM (inactive) in each case. Further, the GI50 was > 100 µM (inactive) in the test on MOLT-4; > 100 µM (inactive) with HCC 2998; > 100 µM (inactive) with NCI-H460; > 100 µM (inactive) in the test with SR; greater than 100 µM with HCT-15; > 100 µM (inactive) with SNB-19. Further, the GI50 in the test on CAKI-1, in the test with SNB-75, with DLD-1, in the test with SK-MEL-2, in the test on SF-295 and with DMS-273 was > 100 µM (inactive) each time.

As to `COC1(OC)CCC2(C)OC(c3ccccc3)C1O2` (stereo unspecified), the GI50 in the test on UO-31, with SK-MEL-28, in the test with SF-539, with M14, in the test with XF498 and in the test with UACC-257 was > 100 µM (inactive) throughout. Moreover, the GI50 in the test on MOLT-4 is > 100 µM (inactive); in the test on HCC 2998, > 100 µM (inactive); in the test on NCI-H460, > 100 µM (inactive); in the test on SR, > 100 µM (inactive); in the test with HCT-15, greater than 100 µM; with SNB-19 it was > 100 µM (inactive). The GI50 with CAKI-1, in the test with SNB-75, with DLD-1, in the test with SK-MEL-2, in the test with SF-295 and in the test on DMS-273 was > 100 µM (inactive) throughout.

On to `COc1ccc(-c2cc(N3CCN(c4ccc(Cl)cc4)CC3)c(C#N)c(=O)o2)cc1`, for which the GI50 in the test on UO-31 was 4.79 µM (inactive); in the test with SK-MEL-28, 6.9 µM (inactive); in the test on SF-539 it was 3.55 µM (inactive); with M14, 35.1 µM (inactive); in the test on XF498, 3.09 µM (inactive); in the test with UACC-257, 17.9 µM (inactive). In addition, the GI50 in the test on HCC 2998 is 91.8 µM (inactive); in the test with NCI-H460, 10.5 µM (inactive); in the test with SR, > 100 µM (inactive); in the test with HCT-15 it was 40.7 µM; in the test on SNB-19, 2.93 µM (inactive); in the test on CAKI-1 it was 8.71 µM (inactive). In addition, the GI50 with SNB-75 was 3.25 µM (inactive); in the test on DLD-1, 25.8 µM (inactive); in the test on SK-MEL-2 it was 15.6 µM (inactive); in the test with SF-295, 4.28 µM (inactive); with DMS-273, 16.3 µM (inactive).

In the case of `CC(C)=CCc1c(O)ccc2c1OC1c3ccc(O)c(CC=C(C)C)c3OCC21` (stereo unspecified), the GI50 in the test on UO-31 is 11.7 µM (inactive); in the test with SK-MEL-28, 13.4 µM (inactive); in the test with SF-539, 10.5 µM (inactive); in the test with XF498, 17.8 µM (inactive); in the test with UACC-257, 13.8 µM (inactive); in the test on MOLT-4 it was 3.14 µM (inactive). Besides, the GI50 in the test with HCC 2998 was 13.2 µM (inactive); in the test on NCI-H460, 5.15 µM (inactive); in the test with HCT-15, 3.96 µM; in the test on SNB-19, 13.6 µM (inactive); in the test with CAKI-1, 9.02 µM (inactive); in the test on SNB-75 it was 15.9 µM (inactive). The GI50 was 5.19 µM (inactive) with DLD-1, 18 µM (inactive) with SK-MEL-2, 11.6 µM (inactive) in the test on SF-295 and 6.4 µM (inactive) with DMS-273.

In the case of `CC1(CO)C(O)CCC2(C)C1CCC1CC3CC12CCC3(O)CO` (stereo unspecified), the GI50 with UO-31 is 25.3 µM (inactive); with SK-MEL-28, > 100 µM (inactive); in the test with SF-539, 2.9 µM (inactive); in the test on XF498, 64.7 µM (inactive); with UACC-257, > 81.3 µM (inactive); in the test with MOLT-4, 5.12 µM (inactive). For the same compound, the GI50 was 12.1 µM (inactive) in the test on HCC 2998; 0.333 µM (active) in the test on NCI-H460; greater than 24.8 µM with HCT-15; > 79.1 µM (inactive) in the test on SNB-19; 3.15 µM (inactive) with CAKI-1; > 51.8 µM (inactive) with SNB-75. The GI50 in the test on DLD-1 was > 100 µM (inactive); in the test with SK-MEL-2, > 100 µM (inactive); in the test on SF-295, 2.19 µM (inactive); in the test with DMS-273 it was 0.44 µM (active).

Take `CC1(C)S[C@@H]2[C@H](NC(=O)CCC[C@@H](N)C(=O)O)C(=O)N2[C@H]1C(=O)O` [ADICILLIN]: the GI50 with UO-31 is > 50 µM (inactive); with SK-MEL-28 it was > 50 µM (inactive); in the test with SF-539, > 50 µM (inactive); with XF498, 24.1 µM (inactive); in the test with UACC-257 it was > 50 µM (inactive); with MOLT-4, > 50 µM (inactive). Moreover, the GI50 with HCC 2998 was > 50 µM (inactive); in the test with NCI-H460, > 50 µM (inactive); in the test on HCT-15 it was greater than 50 µM; in the test on SNB-19 it was > 50 µM (inactive); with CAKI-1, > 50 µM (inactive); in the test on SNB-75, > 50 µM (inactive). Further, the GI50 in the test with DLD-1, in the test with SK-MEL-2, in the test on SF-295 and with DMS-273 was > 50 µM (inactive) each time.

For the compound `Cc1ccc(Oc2ccc(C)cc2[N+](=O)[O-])cc1`, the GI50 with UO-31 was 29.2 µM (inactive); with SK-MEL-28, 65.6 µM (inactive); with SF-539, > 100 µM (inactive); with M14, 96.6 µM (inactive); with XF498, 0.275 µM (active); in the test on UACC-257, 62.5 µM (inactive). Also, the GI50 with MOLT-4 is 37.4 µM (inactive); in the test with HCC 2998, > 100 µM (inactive); with NCI-H460 it was 90.8 µM (inactive); with SR it was 33.7 µM (inactive); in the test with HCT-15 it was 63.8 µM; in the test on SNB-75, 22.9 µM (inactive). Besides, the GI50 is 77.4 µM (inactive) in the test with DLD-1, > 100 µM (inactive) in the test with SK-MEL-2, > 100 µM (inactive) in the test with SF-295 and > 100 µM (inactive) with DMS-273.
